Reference: patent US9580390B2, “Indazole compounds as kinase inhibitors and method of treating cancer with same” (University Health Network, priority 2011, dated 2017)

Columns and labels:
[1] = tested on: colon cancer cells (HCT116); test: Cancer cell line growth inhibition (SRB assay); assay type: cell-based; settings: Homo sapiens, HCT-116; read-out: Cancer Cell Line GI50 Range HCT116
Breast cancer cells = test: Cancer cell line growth inhibition (SRB assay); assay type: cell-based; settings: Homo sapiens; MDA-MB-468; read-out: Cancer Cell Line GI50 Range MDA-MB-468
human TTK = biological target: T1, human TTK (Homo sapiens, UniProt P33981); test: TTK inhibition assay (indirect ELISA); assay type: biochemical; settings: read-out: TTK IC50 Range
T1 construct: amino terminal GST fusion of full length human TTK; purchased Invitrogen
T1 sequence (P33981 1-857): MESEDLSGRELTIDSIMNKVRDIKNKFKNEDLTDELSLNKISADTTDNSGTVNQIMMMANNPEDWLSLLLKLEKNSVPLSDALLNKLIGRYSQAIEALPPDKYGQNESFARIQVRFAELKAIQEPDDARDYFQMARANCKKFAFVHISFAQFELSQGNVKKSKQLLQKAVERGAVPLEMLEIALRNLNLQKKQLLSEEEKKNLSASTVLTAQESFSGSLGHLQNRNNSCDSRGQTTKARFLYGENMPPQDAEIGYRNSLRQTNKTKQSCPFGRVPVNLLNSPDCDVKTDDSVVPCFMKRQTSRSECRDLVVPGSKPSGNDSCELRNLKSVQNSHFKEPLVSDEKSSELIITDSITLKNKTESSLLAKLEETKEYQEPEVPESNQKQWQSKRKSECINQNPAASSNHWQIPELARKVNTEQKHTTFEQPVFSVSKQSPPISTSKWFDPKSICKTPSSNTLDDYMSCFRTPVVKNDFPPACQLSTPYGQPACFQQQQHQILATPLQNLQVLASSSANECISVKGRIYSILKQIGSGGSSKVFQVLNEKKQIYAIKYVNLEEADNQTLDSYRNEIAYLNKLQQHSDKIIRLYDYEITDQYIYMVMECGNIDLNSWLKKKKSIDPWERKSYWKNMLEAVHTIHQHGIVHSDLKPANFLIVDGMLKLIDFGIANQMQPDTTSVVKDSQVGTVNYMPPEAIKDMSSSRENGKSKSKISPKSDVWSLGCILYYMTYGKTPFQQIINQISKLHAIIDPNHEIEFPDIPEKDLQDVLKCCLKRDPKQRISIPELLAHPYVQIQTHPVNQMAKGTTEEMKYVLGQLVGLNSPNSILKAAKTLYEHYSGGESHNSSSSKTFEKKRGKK

[2] = tested on: ovarian cancer cells (PA-1); test: Cancer cell line growth inhibition (SRB assay); assay type: cell-based; settings: Homo sapiens, PA-1; read-out: Cancer Cell Line GI50 Range PA-1

Row | SMILES | GI50 [1] | GI50 (Breast cancer cells) | IC50 (human TTK) | GI50 [2]
1 | CC1=CC(C)(C)Oc2ccc(-c3n[nH]c4ccc(C(=O)N[C@H](c5ccccn5)C5CC5)cc34)cc21 [Example A237, (S)-N-(cyclopropyl(pyridin-2-yl)methyl)-3-(2,2,4-trimethyl-2H-chromen-6-yl)-1H-indazole-5-carboxamide] | > 500 nM | > 500 nM | < 100 nM | > 500 nM
2 | Cc1cc(=O)n(C)c2ccc(-c3n[nH]c4ccc(C(=O)N[C@H](c5ccccn5)C5CC5)cc34)cc12 [Example A238] | 100 to 500 nM | > 500 nM | < 100 nM | 100 to 500 nM
3 | Cc1cc(=O)n(C)c2ccc(-c3n[nH]c4ccc(C(=O)N[C@H](c5ccccn5)C5CCCC5)cc34)cc12 [Example A239, (S)-N-(cyclopentyl(pyridin-2-yl)methyl)-3-(1,4-dimethyl-2-oxo-1,2-dihydroquinolin-6-yl)-1H-indazole-5-carboxamide] | > 500 nM | > 500 nM | < 100 nM | > 500 nM
4 | Cn1ccc(=O)c2cc(-c3n[nH]c4ccc(C(=O)N[C@H](c5ccccn5)C5CCCC5)cc34)ccc21 [Example A240, (S)-N-(cyclopentyl(pyridin-2-yl)methyl)-3-(1-methyl-4-oxo-1,4-dihydroquinolin-6-yl)-1H-indazole-5-carboxamide] | > 500 nM | > 500 nM | < 100 nM | > 500 nM
5 | O=C(N[C@H](c1ccccn1)C1CC1)c1ccc2[nH]nc(-c3ccc4c(c3)C(=O)CCO4)c2c1 [Example A241] | > 500 nM | > 500 nM | < 100 nM | > 500 nM
6 | CN1CCC(=O)c2cc(-c3n[nH]c4ccc(C(=O)N[C@H](c5ccccn5)C5CCCC5)cc34)ccc21 [Example A242, (S)-N-(cyclopentyl(pyridin-2-yl)methyl)-3-(1-methyl-4-oxo-1,2,3,4-tetrahydroquinolin-6-yl)-1H-indazole-5-carboxamide] | > 500 nM | > 500 nM | < 100 nM | 100 to 500 nM
7 | CS(=O)(=O)c1cc(-c2n[nH]c3ccc(C(=O)NC(c4ccccn4)C4CC4)cc23)ccc1OC1CCNCC1 (stereo not drawn) [Example A243, N-(cyclopropyl(pyridin-2-yl)methyl)-3-(3-(methylsulfonyl)-4-(piperidin-4-yloxy)phenyl)-1H-indazole-5-carboxamide] | > 500 nM | > 500 nM | < 100 nM | > 500 nM
8 | CN1CCC2(CC1)CC(=O)c1cc(-c3n[nH]c4ccc(C(=O)N[C@H](c5ccccc5)C5CC5)cc34)ccc1O2 [Example A251, (S)-N-(cyclopropyl(phenyl)methyl)-3-(1′-methyl-4-oxospiro[chroman-2,4′-piperidin]-6-yl)-1H-indazole-5-carboxamide] | 100 to 500 nM | 100 to 500 nM | < 100 nM | 100 to 500 nM
9 | CN1C2CCC1CC(Oc1ccc(-c3n[nH]c4ccc(C(=O)N[C@H](c5ccccn5)C5CCCC5)cc34)cc1)C2 (stereo partly drawn) [Example A252, N-((S)-cyclopentyl(pyridin-2-yl)methyl)-3-(4-(((1R,3R,5S)-8-methyl-8-azabicyclo[3.2.1]octan-3-yl)oxy)phenyl)-1H-indazole-5-carboxamide] | < 100 nM | < 100 nM | < 100 nM | < 100 nM
10 | CN1CC2(CC(=O)c3cc(-c4n[nH]c5ccc(C(=O)N[C@H](c6ccccc6)C6CC6)cc45)ccc3O2)C1 [Example A254, (S)-N-(cyclopropyl(phenyl)methyl)-3-(1-methyl-4′-oxospiro[azetidine-3,2′-chroman]-6′-yl)-1H-indazole-5-carboxamide] | 100 to 500 nM | > 500 nM | < 100 nM | 100 to 500 nM
11 | CC(C)[C@H](NC(=O)c1ccc2[nH]nc(-c3ccc4c(c3)C(=O)CC3(CN(C)C3)O4)c2c1)c1ccccc1Cl [Example A255, (S)-N-(1-(2-chlorophenyl)-2-methylpropyl)-3-(1-methyl-4′-oxospiro[azetidine-3,2′-chroman]-6′-yl)-1H-indazole-5-carboxamide] | 100 to 500 nM | 100 to 500 nM | < 100 nM | 100 to 500 nM
12 | CN1CC2(CC(O)c3cc(-c4n[nH]c5ccc(C(=O)N[C@H](c6ccccc6)C6CC6)cc45)ccc3O2)C1 (stereo partly drawn) [Example A256, N-((S)-cyclopropyl(phenyl)methyl)-3-(4′-hydroxy-1-methylspiro(azetidine-3,2-chroman]-6′-yl)-1H-indazole-5-carboxamide] | > 500 nM | > 500 nM | 100 to 500 nM | > 500 nM
13 | O=C(N[C@H](c1ccccn1)C1CC1)c1ccc2[nH]nc(-c3ccc4c(c3)C(=O)CC3(CCOCC3)O4)c2c1 [Example A262, (S)-N-(cyclopropyl(pyridin-2-yl)methyl)-3-(4-oxo-2′,3′,5′,6′-tetrahydrospiro[chroman-2,4′-pyran]-6-yl)-1H-indazole-5-carboxamide] | 100 to 500 nM | 100 to 500 nM | < 100 nM | 100 to 500 nM
14 | O=CN1CCC2(CC1)CC(=O)c1cc(-c3n[nH]c4ccc(C(=O)N[C@H](c5ccccn5)C5CC5)cc34)ccc1O2 [Example A263, (S)-N-(cyclopropyl(pyridin-2-yl)methyl)-3-(1′-formyl-4-oxospiro[chroman-2,4′-piperidin]-6-yl)-1H-indazole-5-carboxamide] | 100 to 500 nM | 100 to 500 nM | < 100 nM | < 100 nM
15 | O=C(N[C@@H](c1ccccc1F)C1CC1)c1ccc2[nH]nc(-c3ccc(N4CCN(C5COC5)CC4)cc3)c2c1 [Example A270, (R)-N-(cyclopropyl(2-fluorophenyl)methyl)-3-(4-(4-(oxelan-3-yl)piperazin-1-yl)phenyl)-1H-indazole-5-carboxamide] | < 100 nM | 100 to 500 nM | < 100 nM | < 100 nM
16 | O=C(N[C@H](c1ccccn1)C1CC1)c1cc2c(-c3ccc(N4C5CCC4CC(O)C5)cc3)n[nH]c2cc1F (stereo partly drawn) [Example A271, N-((S)-cyclopropyl(pyridin-2-yl)methyl)-6-fluoro-3-(4-((1R,3R,5S)-3-hydroxy-8-azabicyclo[3.2.1]octan-8-yl)phenyl)-1H-indazole-5-carboxamide] | > 500 nM | > 500 nM | < 100 nM | 100 to 500 nM
17 | O=C(N[C@H](c1ccccn1)C1CC1)c1cc2c(-c3ccc(N4[C@@H]5CC[C@H]4COC5)cc3)n[nH]c2cc1F [Example A272, 3-(4-((1R,5S)-3-oxa-8-azabicyclo[3.2.1]octan-8-yl)phenyl)-N-((S)-cyclopropyl(pyridin-2-yl)methyl)-6-fluoro-1H-indazole-5-carboxamide] | 100 to 500 nM | > 500 nM | < 100 nM | 100 to 500 nM
18 | CC(C)C[C@H](NC(=O)c1ccc2[nH]nc(-c3ccc(N4CC(N5CCOCC5)C4)cc3)c2c1)c1ccccc1F [Example A276, (S)-N-(1-(2-fluorophenyl)-3-methylbutyl)-3-(4-(3-morpholinoazetidin-1-yl)phenyl)-1H-indazole-5-carboxamide] | < 100 nM | 100 to 500 nM | < 100 nM | < 100 nM
19 | CC(C)C(NC(=O)c1ccc2[nH]nc(-c3ccc(O[C@H]4C[C@H]5CC[C@@H](C4)N5C)cc3)c2c1)c1ccccc1F (stereo partly drawn) [Example A281, N-(1-(2-fluorophenyl)-2-methylpropyl)-3-(4-(((1R,3R,5S)-8-methyl-8-azabicyclo[3.2.1]octan-3-yl)oxy)phenyl)-1H-indazole-5-carboxamide] | < 100 nM | 100 to 500 nM | < 100 nM | < 100 nM
20 | CN1[C@@H]2CC[C@H]1C[C@@H](Oc1ccc(-c3n[nH]c4ccc(C(=O)NC(c5ccccc5Cl)C5CCCC5)cc34)cc1)C2 (stereo partly drawn) [Example A284, N-((2-chlorophenyl)(cyclopentyl)methyl)-3-(4-(((1R,3R,5S)-8-methyl-8-azabicyclo[3.2.1]octan-3-yl)oxy)phenyl)-1H-indazole-5-carboxamide] | 100 to 500 nM | 100 to 500 nM | < 100 nM | 100 to 500 nM
21 | CN1[C@@H]2CC[C@H]1C[C@H](Oc1ccc(-c3n[nH]c4ccc(C(=O)NC(c5ccccc5)C5CC5)cc34)cc1)C2 (stereo partly drawn) [Example A286, N-(cyclopropyl(phenyl)methyl)-3-(4-(((1R,3S,5S)-8-methyl-8-azabicyclo[3.2.1]octan-3-yl)oxy)phenyl)-1H-indazole-5-carboxamide] | < 100 nM | < 100 nM | < 100 nM | < 100 nM
